From patent US20030119067A1, “PYK2 related products and methods” (Sugen, Inc., priority 1996, published 2003)
Like-named read-outs stand apart in the source and are kept apart here.

How the values were obtained:
Shc = experiment: Tyrosine phosphorylation of Shc in PC12 cells; type: cell-based, rat; conditions: for tyrosine phosphorylation of Shc induced by agonist: DMPP 100 μM, muscarine 1 mM, NGF 100 ng/ml
Procedure: Tyrosine phosphorylation of Shc in response to bradykinin, carbachol, PMA and other stimuli was also measured. Quiescent PC12 cells were stimulated for 5 min at 37° C. with bradykinin (1 μM), carbachol (1 mM), KCl (75 mM), PMA (1.6 μM), NGF(100 ng/ml), or left unstimulated (−). The cells were also stimulated with carbachol (1 mM) or potassium chloride (75 mM) in the presence of 3 mM EGTA. Stimulations with DMPP (100 μM) or muscarine (1 mM) were preformed under the same conditions. […] The Shc proteins were immunoprecipitated with anti-Shc antibodies, the immunoprecipitates were resolved by SDS-PAGE (8%), transferred to nitrocellulose and immunoblotted with anti-phosphotyrosine antibodies.

PYK-2 = experiment: Tyrosine phosphorylation of PYK-2 in NIH3T3 cells overexpressing PYK-2; type: cell-based; conditions: NIH3T3 cells overexpressing PYK-2 / PYK-2-HA; TPA 6 μM, 15 min, 37° C.
Excerpt: The PYK-2 cDNA cloned in pLSV was cotransfected with pSV2neo into PC12 cells and NIH3T3 in order to establish stable cell lines. G418 resistant colonies were screened by immunoprecipitating and immunoblotting.
NIH3T3 cell lines were established that overexpress the PYK-2 and the PYK-2-HA protein. […] The level of phosphorylation is not so high.

PYK2 = experiment: Tyrosine phosphorylation of PYK2 in PC12 cells (immunoprecipitation, anti-phosphotyrosine immunoblot); type: cell-based, rat; conditions: for tyrosine phosphorylation of PYK2: quiescent PC12 cells, carbachol 1 mM, KCl 75 mM, A23187 6 μM 15 min, bradykinin 1 μM, PMA 1.6 μM
Kv1.2 channel [1] = conditions: oocytes, after 20 min incubation; as previously shown (Huang et al.); cited from earlier work
Kv1.2 potassium channel = experiment: Tyrosine phosphorylation of Kv1.2 in transfected 293 cells; type: cell-based, human; conditions: 293 cells co-expressing Kv1.2-HA and PYK2; PMA 1.6 μM, calcium ionophore 6 μM
Kv1.2 channel [2] = experiment: Kv1.2 currents in Xenopus oocytes (two microelectrode voltage clamp); type: cell-based, Xenopus laevis
Procedure: In vitro capped RNA transcripts of Kv1.2, PYK2 and PKN were synthesized from linearized plasmids DNA templates utilizing the […] mMACHINE kit (Ambion), following the supplier's protocols. The products of the transcription reaction (cRNAs) were diluted in RNAse-free water and stored at −70° C. Expression of the RNAs was done by injection of 50nl of RNA into defolliculated stage V and VI oocytes from Xenopus laevis (Iverson et al., J. Neurosc. 10, 2903-2916, 1990). The injected oocytes were incubated for 2-3 days at 20° C. in L15 solution (1:2 dilution of Gibco's Leibovitz L15 medum in H20, with 50 U/ml nystatin, 0.1 mg/ml gentamycin, 30 mM HEPES buffer, pH 7.3-7.4, filtered through a 0.45 mm membrane) Electrophysiological Recording and analysis. Ionic currents were recorded with a two microelectrode voltage-clamp as described (Iverson et al., supra). The current were low-pass filtered KHz using an 8-pole Bessel filter and stored in a 80286 microcomputer using the pclamp acquisition system (Axon Instruments). The data was analyzed with the clamp fit pro-rams of the pCIamp system (Axon Instruments). All recording were performed at room temperature ([…]). The recording chamber was continually perfused with recording solution. To avoid contamination of the oocyte by Ca+^2-activated Cl^− currents low Cl^− recording solution was used (96 mM Na+, glutamate, 2 mM K^+ glutamate, 0.5 mM CaCl2, 5 mM MgCl2, 5 mM HEPES buffer). The K+ currents were elicited in depolarizinc, steps from −100 to +40 mv in 10 mV increments every 15 seconds.
Kv1.2 currents from oocytes microinjected with either Kv1.2 mRNA, Kv1.2 and PYK2 mRNAs, or Kv1.2 and a kinase negative mutant of PYK2 mRNAs (PKN). Currents were elicited in response to depolarizing steps from −100 to +30 mV increments from a holding potential of −110 mV. Representative traces of Kv1.2 channels before and after bath application of 100 nM PMA at the annotated time (8 and 20 minutes) in the same cell.
Suppression of Kv1.2 currents in response to PMA is blocked by a kinase negative PYK2 mutant (PKN). Inhibition of Kv1.2 currents in an oocyte microinjected with Kv1.2 mRNA before and 25 minutes after treatment with PMA at 50 nM or 100 nM concentration. Recordings from an oocyte expression Kv1.2 and PYK2 or Kv1.2 and a kinase negative mutant of PYK2 under the same conditions as described above. The same protocol was utilized in both experiments.
We asked whether stimulation of PYK2 can suppress Kv1.2 currents. […] Stage V oocytes were microinjected either with Kv1.2 transcripts or with Kv1.2 together with PYK2 or PKN mRNAs. […] The expression of Kv1.2, PYK2 and PKN in the frog oocytes was confirmed by immunoblot analysis with anti-HA or anti-PYK2 antibodies.

PYK2 and Fak = experiment: Tyrosine phosphorylation of PYK2 and Fak in transfected 293 cells; type: cell-based, human; conditions: PMA 1.6 μM, calcium ionophore 6 μM
Procedure: We examined the possibility whether PYK2 can tyrosine phosphorylate the Kv1.2 channel and regulate its function. In order to test this possibility, we expressed in 293 cells the Kv1.2 protein, Kv1.2 together with PYK2, and as a control Kv1.2 with a kinase negative PYK2 mutant (PKN) or with the protein tyrosine kinase Fak. The cells were grown for 24 hours in medium containing 0.2% serum and then stimulated with PMA(1.6 μM), calcium ionophore (6 μM), or left unstimulated.
Immunoblotting analysis with phosphotyrosine anti-bodies following immunoprecipitation of PYK2, PKN and Fak by specific antibodies. […] The level of expression of the kinase negative mutant of PYK2 (PKN) was similar to the expression of wild type PYK2 or FAK. […] We next analyzed the tyrosine phosphorylation of Kv1.2 channel in each cell line.
Embryonic human kidney 293 cells were transiently transfected with different combinations of mammalian expression vectors which direct the synthesis of Kv1.2-HA, PYK2, a kinase negative PYK2 (PKN) or the protein tyrosine kinase Fak. […]
Tyrosine phosphorylation of each protein was analysed following immunoprecipitation and immunoblotting with anti-phosphotyrosine antibodies. The expression of each protein was determined by immunoblot analysis of total cell lysates from each transfection with anti-PYK2, anti-HA or anti-Fak antibodies.

[3] = PC12 cells, 37° C., TPA 1.6 μM 15 min, bradykinin 1 μM 1 min, A23187 2 μM 15 min
[4] = PC12 cells, pertussis toxin 100 ng/ml for 20 hours

Which “tyrosine phosphorylation of Shc induced by agonist” value (Shc) does the source give for `C[C@@H]1O[C@H](C[N+](C)(C)C)C[C@H]1O` [muscarine] here?
The value was “had no effect”.

With “EGF: growth factor used to stimulate NIH3T3 cells” as the compound, how does the “tyrosine phosphorylation of PYK-2” value (PYK-2) read?
The value was “undergoes tyrosine phosphorylation”.

With `C[N+](C)(C)CCOC(N)=O` [carbachol] as the compound, how does the “time of maximum tyrosine phosphorylation of Shc” value (Shc; 1 mM carbachol time course) read?
The value was “one”.

What about the “dependence of agonist-induced tyrosine phosphorylation of Shc on extracellular calcium” value (Shc; 3 mM EGTA) of the same compound?
Its value is “dependent on the presence of extracellular calcium”.

And the “time after applying the agonist at which PYK2 became phosphorylated on tyrosine” value (PYK2; PC12 cells, carbachol)?
Its value is 5 s.

And the “tyrosine phosphorylation of PYK2” value (PYK2; 37° C.)?
Its value is “induces strong, tyrosine phosphorylation of PYK2”.

With pertussis toxin as the compound, how does the “effect on the TPA / bradykinin PYK-2 phosphorylation response in combination” value (PYK2) read?
The value was “induced the response of TPA and bradykinin”.

And the “tyrosine phosphorylation of PYK-2 in response to the stimulus alone” value (PYK2; [3])?
The value was “didn't cause any response alone”.

And the “effect of pretreatment on LPA-induced tyrosine phosphorylation of PYK2” value (PYK2; [4])?
The value was “significantly inhibited”.

What about the “effect of pretreatment on bradykinin or PMA induced activation of PYK2” value (PYK2; [4]) of the same compound?
Its value is “not affected”.

With `O=C(O)CN(CCOCCOCCN(CC(=O)O)CC(=O)O)CC(=O)O` [EGTA, ethyleneglycol-bis (β-aminoethyl ether)-N,N,N′N′-tetraacetic acid] as the compound, how does the “effect on carbachol-induced tyrosine phosphorylation of PYK2” value (PYK2; PC12 cells, EGTA 3 mM (elimination of extracellular calcium)) read?
Its value is “completely blocked agonist induced tyrosine phosphorylation of PYK2”.

What about the “effect on LPA-induced PYK2 phosphorylation” value (PYK2; PC12 cells, medium containing 3 mM EGTA) of the same compound?
Its value is “did not affect”.

With `CCCCCCCCCCCCCC(=O)O[C@@H]1[C@@H](C)[C@@]2(O)[C@@H](C=C(CO)C[C@]3(O)C(=O)C(C)=C[C@@H]23)[C@@H]2C(C)(C)[C@]12OC(C)=O` [PMA, phorbol 12-myristate 13-acetate] as the compound, how does the “inhibition of Kv1.2 currents” value (Kv1.2 channel [1]) read?
The value was 80-90%.

What about the “agonist-induced PYK2 tyrosine phosphorylation after prolonged PMA treatment (PKC down-regulation)” value (PYK2; PC12 cells pretreated with 100 nM PMA for 12 h) of the same compound?
The value was “completely abolished the effect of PMA”.

What about the “tyrosine phosphorylation of PYK-2 in response to the stimulus alone” value (PYK2; [3]) of the same compound?
The value was “undergoes tyrosine phosphorylation”.

What about the “increase in the phosphorylation state of PYK2 relative to unstimulated cells” value (PYK2; PC12 cells, LPA 2.5 mM, bradykinin 1 mM 3 min, PMA 1 mM 10 min, 37° C.) of the same compound?
The value was 12 fold.

And the “tyrosine phosphorylation of PYK2” value (PYK2; 37° C.)?
The value was “induced tyrosine phosphorylation of PYK2”.

What about the “tyrosine phosphorylation of Kv1.2” value (Kv1.2 potassium channel) of the same compound?
Its value is “enhanced”.

What about the “inhibition of outward current” value (Kv1.2 channel [2]; oocytes coexpressing Kv1.2 and PYK2, 8 min after 100 nM PMA) of the same compound?
The value was 95%.

What about the “inhibition of outward current” value (Kv1.2 channel [2]; oocytes expressing Kv1.2 alone, 8 min after 100 nM PMA) of the same compound?
Its value is 25%.

What about the “effect on Kv1.2 currents” value (Kv1.2 channel [2]; oocytes treated with PMA) of the same compound?
Its value is “caused inhibition of Kv1.2 currents”.

What about the “effect on kinetics and voltage dependence of remaining Kv1.2 currents” value (Kv1.2 channel [2]; oocytes, absence or presence of PYK2 expression) of the same compound?
Its value is “did not result in changes in both the kinetics or voltage dependence of the remaining currents”.

What about the “tyrosine phosphorylation of PYK2 and Fak” value (PYK2 and Fak) of the same compound?
The value was “induced tyrosine phosphorylation”.

Which results are given for NGF: nerve growth factor?
tyrosine phosphorylation of Shc induced by agonist (Shc): induced persistent stimulation of Shc phosphorylation; duration of stimulation of Shc phosphorylation after addition (Shc; NGF): five

Which “tyrosine phosphorylation of PYK-2” value (PYK-2) does the source give for “aFGF: growth factor used to stimulate NIH3T3 cells” here?
The value was “undergoes tyrosine phosphorylation”.

With `CN1[C@@H]2CC[C@H]1C[C@@H](OC(=O)C(CO)c1ccccc1)C2` (some centres unmarked) [atropine] as the compound, how does the “effect of antagonist on carbachol-induced tyrosine phosphorylation of Shc” value (Shc) read?
The value was “had no effect”.

Which “effect of antagonist on carbachol-induced tyrosine phosphorylation of Shc” value (Shc) does the source give for `CNC1(C)C2CCC(C2)C1(C)C` (centres unmarked) [mecamylamine] here?
The value was “blocked the effect of carbachol”.

Which “tyrosine phosphorylation of Shc induced by agonist” value (Shc) does the source give for `C[N+]1(C)CCN(c2ccccc2)CC1.[I-]` [DMPP, 1,1-dimethyl-4-phenyl piperazinium iodide] here?
Its value is “induced phosphorylation of Shc”.

Which results are given for `[Cl-].[K+]` [KCl, potassium chloride]?
agonist-induced PYK2 tyrosine phosphorylation on omission of extracellular calcium (PYK2; PC12 cells, no extracellular calcium or EGTA present): completely abolished PYK2 tyrosine phosphorylation; tyrosine phosphorylation of PYK2 (PYK2; 37° C.): induces rapid tyrosine phosphorylation of PYK2

Which results are given for Cholera toxin?
effect on the TPA / bradykinin PYK-2 phosphorylation response in combination (PYK2): gave higher signal in combination with TPA and bradykinin; tyrosine phosphorylation of PYK-2 in response to the stimulus alone (PYK2): didn't cause phosphorylation of PYK-2 alone

For `CNc1ccc2oc(C[C@H]3O[C@@]4(CC[C@H]3C)O[C@H]([C@H](C)C(=O)c3ccc[nH]3)[C@H](C)C[C@H]4C)nc2c1C(=O)O` [calcium ionophore A23187], which “tyrosine phosphorylation of PYK-2 in response to the stimulus alone” value (PYK2; [3]) is on record?
The value was “undergoes tyrosine phosphorylation”.

And the “tyrosine phosphorylation of PYK2” value (PYK2; 37° C.)?
The value was “phosphorylated on tyrosine residues”.

And the “tyrosine phosphorylation of Kv1.2” value (Kv1.2 potassium channel)?
The value was “enhanced”.

What about the “tyrosine phosphorylation of PYK2 and Fak” value (PYK2 and Fak) of the same compound?
The value was “induced a weaker response”.

With PDGF as the compound, how does the “tyrosine phosphorylation of PYK-2” value (PYK-2) read?
The value was “undergoes tyrosine phosphorylation”.
